Assay results published in article PMC12510138, “Asymmetric Synthesis and Biological Evaluation of 1,3‐ and 1,4‐Disubstituted Isoquinoline‐Containing Lipoxin A4 Analogues” (Chemistry (Weinheim an Der Bergstrasse, Germany), 2025).

How the values were obtained:
ALX/FPR2 [1] = target: T1, ALX/FPR2 (Homo sapiens, UniProt P25090); assay: intracellular Ca2+ flux (Fluo-4) in stably double transfected FPR2+/Gαq+ HEK-293 cells; wild-type HEK-293 cells as negative control; partial agonist; format: cell-based
T1 sequence (P25090 1-351): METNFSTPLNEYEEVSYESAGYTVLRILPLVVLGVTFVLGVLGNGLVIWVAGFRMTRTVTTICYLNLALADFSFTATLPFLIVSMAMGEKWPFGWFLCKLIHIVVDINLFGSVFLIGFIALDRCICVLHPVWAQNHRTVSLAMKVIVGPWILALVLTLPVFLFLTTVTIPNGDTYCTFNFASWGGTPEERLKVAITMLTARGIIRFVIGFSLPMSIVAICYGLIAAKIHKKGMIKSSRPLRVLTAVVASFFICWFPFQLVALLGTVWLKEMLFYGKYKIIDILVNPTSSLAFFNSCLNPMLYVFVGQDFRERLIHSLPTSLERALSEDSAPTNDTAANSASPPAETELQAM

ALX/FPR2 [2] = target: T1, ALX/FPR2; assay: intracellular Ca2+ flux (Fluo-4) in stably double transfected FPR2+/Gαq+ HEK-293 cells; wild-type HEK-293 cells as negative control; full endogenous agonist; format: cell-based

| intracellular Ca2+ flux (Fluo-4) in stably double transfected FPR2+/Gαq+ HEK-293 (ALX/FPR2 [1]) [nM] | intracellular Ca2+ flux (Fluo-4) in stably double transfected FPR2+/Gαq+ HEK-293 (ALX/FPR2 [2]) [nM] | SMILES |
| --- | --- | --- |
| 100 | – | CCCCC[C@@H](O)c1nc(/C=C/[C@@H](O)[C@@H](O)CCCC(=O)OC)cc2ccccc12 [(1R)-8] |
| – | 10 | CCCCC[C@H](O)/C=C/C=C\C=C\C=C\[C@@H](O)[C@@H](O)CCCC(=O)O [compound 1, LXA4] |
